Reference: PubChem BioAssay AID2060889 (Molecular Pharmacology Branch, DTP, NCI, 2025)

Test system: LG0567-F671-PDC complex spheroids viability
Assay: Anticancer human tumor LG0567-F671-PDC patient-derived lung adenocarcinoma cell line growth inhibition [RAS]
Details: for IC50: curve of first compound; for viability, T/C: stronger effect = lower value
Method in brief: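 Agents were tested in combination matrices in half-log decrements from a top concentration at or near clinical Cmax (10 microM if undetermined). Targets were multi-cell spheroids of tumour lines plus HUVEC and MSC stromal cells.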

[1] = second compound 0.000949 µM, first compound 0.0316 µM
[2] = second compound 0.000949 µM, first compound 0.1 µM
[3] = second compound 0.000949 µM, first compound 0.316 µM
[4] = second compound 0.000949 µM, first compound 1 µM
[5] = second compound 0.000949 µM, first compound 3.16 µM
[6] = second compound 0.000949 µM, first compound 10 µM
[7] = second compound 0.003 µM, first compound 0.0316 µM
[8] = second compound 0.003 µM, first compound 0.1 µM
[9] = second compound 0.003 µM, first compound 0.316 µM
[10] = second compound 0.003 µM, first compound 1 µM
[11] = second compound 0.003 µM, first compound 3.16 µM
[12] = second compound 0.003 µM, first compound 10 µM
[13] = second compound 0.00949 µM, first compound 0.0316 µM
[14] = second compound 0.00949 µM, first compound 0.1 µM
[15] = second compound 0.00949 µM, first compound 0.316 µM
[16] = second compound 0.00949 µM, first compound 1 µM
[17] = second compound 0.00949 µM, first compound 3.16 µM
[18] = second compound 0.00949 µM, first compound 10 µM
[19] = second compound 0.03 µM, first compound 0.0316 µM
[20] = second compound 0.03 µM, first compound 0.1 µM
[21] = second compound 0.03 µM, first compound 0.316 µM
[22] = second compound 0.03 µM, first compound 1 µM
[23] = second compound 0.03 µM, first compound 3.16 µM
[24] = second compound 0.03 µM, first compound 10 µM
[25] = second compound 0.0949 µM, first compound 0.0316 µM
[26] = second compound 0.0949 µM, first compound 0.1 µM
[27] = second compound 0.0949 µM, first compound 0.316 µM
[28] = second compound 0.0949 µM, first compound 1 µM
[29] = second compound 0.0949 µM, first compound 3.16 µM
[30] = second compound 0.0949 µM, first compound 10 µM
[31] = second compound 0.3 µM, first compound 0.0316 µM
[32] = second compound 0.3 µM, first compound 0.1 µM
[33] = second compound 0.3 µM, first compound 0.316 µM
[34] = second compound 0.3 µM, first compound 1 µM
[35] = second compound 0.3 µM, first compound 3.16 µM
[36] = second compound 0.3 µM, first compound 10 µM
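Also: spheroids exposed to compound for seven days before readout.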
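For IC50 in this document: luminescence signal used as a proxy for viable cells.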

Molecule `CC(C)NCC(C(=O)N1CCN(c2ncnc3c2C(C)CC3O)CC1)c1ccc(Cl)cc1` (stereo unspecified) + CCn1c(-c2cccnc2C(C)OC)c2c3cc(ccc31)N1CCOC(CC(NC(=O)C(C(C)C)N(C)C(=O)C3(F)CCN(C(=O)C#CC(C)(C)N(C)C)CC3)C(=O)N3CCCC(N3)C(=O)OCC(C)(C)C2)C1 has an IC50 (second compound 0.000949 µM) of under 31.6 nM, an IC50 (second compound 0.003 µM) of under 31.6 nM and an IC50 (second compound 0.00949 µM) of under 31.6 nM. The IC50 (second compound 0.03 µM) was under 31.6 nM, the IC50 (second compound 0.0949 µM) was under 31.6 nM and the IC50 (second compound 0.3 µM) was under 31.6 nM. It also gave a viability, T/C [1] of 11.2%, a viability, T/C [2] of 13.7% and a viability, T/C [3] of 12.3%. For the same molecule, the viability, T/C [4] was 12.3%, the viability, T/C [5] was 8.16% and the viability, T/C [6] was 8.26%. The viability, T/C [7] was 12.4%, the viability, T/C [8] was 11.7% and the viability, T/C [9] was 11.7%. The viability, T/C [10] was 10.8%, the viability, T/C [11] was 8.33% and the viability, T/C [12] was 7.72%. It also gave a viability, T/C [13] of 11%, a viability, T/C [14] of 11.3% and a viability, T/C [15] of 12.6%. The viability, T/C [16] was 10.1%, the viability, T/C [17] was 8.54% and the viability, T/C [18] was 7.28%. For the same molecule, the viability, T/C [19] was 11.5%, the viability, T/C [20] was 10.2% and the viability, T/C [21] was 12.5%. The viability, T/C [22] was 8.64%, the viability, T/C [23] was 7.32% and the viability, T/C [24] was 7.5%. The viability, T/C [25] was 9.18%, the viability, T/C [26] was 10.3% and the viability, T/C [27] was 10.3%. For the same molecule, the viability, T/C [28] was 8.97%, the viability, T/C [29] was 6.83% and the viability, T/C [30] was 6.43%. It also gave a viability, T/C [31] of 8.3%, a viability, T/C [32] of 10.2% and a viability, T/C [33] of 8.96%. For the same molecule, the viability, T/C [34] was 6.59%, the viability, T/C [35] was 6.6% and the viability, T/C [36] was 5.25%.

Molecule `CC(Nc1ccc2c(c1)OCCn1cc(N3C(=O)OCC3C(F)F)nc1-2)C(N)=O` (stereo unspecified) + CCn1c(-c2cccnc2C(C)OC)c2c3cc(ccc31)N1CCOC(CC(NC(=O)C(C(C)C)N(C)C(=O)C3(F)CCN(C(=O)C#CC(C)(C)N(C)C)CC3)C(=O)N3CCCC(N3)C(=O)OCC(C)(C)C2)C1 has an IC50 (second compound 0.000949 µM) of under 31.6 nM, an IC50 (second compound 0.003 µM) of under 31.6 nM and an IC50 (second compound 0.00949 µM) of under 31.6 nM. The IC50 (second compound 0.03 µM) was under 31.6 nM, the IC50 (second compound 0.0949 µM) was under 31.6 nM and the IC50 (second compound 0.3 µM) was under 31.6 nM. It also gave a viability, T/C [1] of 10.7%, a viability, T/C [2] of 8.72% and a viability, T/C [3] of 8.3%. The viability, T/C [4] was 7.21%, the viability, T/C [5] was 5.43% and the viability, T/C [6] was 4.31%. It also gave a viability, T/C [7] of 9.17%, a viability, T/C [8] of 8.19% and a viability, T/C [9] of 7.67%. The viability, T/C [10] was 6.15%, the viability, T/C [11] was 6.22% and the viability, T/C [12] was 4.37%. For the same molecule, the viability, T/C [13] was 9.41%, the viability, T/C [14] was 8.93% and the viability, T/C [15] was 9.05%. For the same molecule, the viability, T/C [16] was 6.09%, the viability, T/C [17] was 5.36% and the viability, T/C [18] was 4.24%. It also gave a viability, T/C [19] of 8.43%, a viability, T/C [20] of 7.85% and a viability, T/C [21] of 6.83%. The viability, T/C [22] was 5.59%, the viability, T/C [23] was 4.63% and the viability, T/C [24] was 3.89%. For the same molecule, the viability, T/C [25] was 7.47%, the viability, T/C [26] was 6.11% and the viability, T/C [27] was 5.42%. The viability, T/C [28] was 4.93%, the viability, T/C [29] was 3.8% and the viability, T/C [30] was 2.62%. The viability, T/C [31] was 7.06%, the viability, T/C [32] was 4.74% and the viability, T/C [33] was 5.86%. The viability, T/C [34] was 3.71%, the viability, T/C [35] was 2.8% and the viability, T/C [36] was 1.69%.

`O=C(c1ccc(F)c(F)c1Nc1ccc(I)cc1F)N1CC(O)([C@@H]2CCCCN2)C1` + CCn1c(-c2cccnc2C(C)OC)c2c3cc(ccc31)N1CCOC(CC(NC(=O)C(C(C)C)N(C)C(=O)C3(F)CCN(C(=O)C#CC(C)(C)N(C)C)CC3)C(=O)N3CCCC(N3)C(=O)OCC(C)(C)C2)C1 gave an IC50 (second compound 0.000949 µM) of under 3.16 nM, an IC50 (second compound 0.003 µM) of under 3.16 nM and an IC50 (second compound 0.00949 µM) of under 3.16 nM. For the same molecule, the IC50 (second compound 0.03 µM) was under 3.16 nM, the IC50 (second compound 0.0949 µM) was under 3.16 nM and the IC50 (second compound 0.3 µM) was under 3.16 nM. The viability, T/C (second compound 0.000949 µM, first compound 0.00316 µM) was 13.4%, the viability, T/C (second compound 0.000949 µM, first compound 0.01 µM) was 11.5% and the viability, T/C [1] was 9.69%. It also gave a viability, T/C [2] of 6.79%, a viability, T/C [3] of 3.71% and a viability, T/C [4] of 1.41%. The viability, T/C (second compound 0.003 µM, first compound 0.00316 µM) was 12.6%, the viability, T/C (second compound 0.003 µM, first compound 0.01 µM) was 11.1% and the viability, T/C [7] was 9.13%. The viability, T/C [8] was 7.29%, the viability, T/C [9] was 3.35% and the viability, T/C [10] was 1.31%. It also gave a viability, T/C (second compound 0.00949 µM, first compound 0.00316 µM) of 13.7%, a viability, T/C (second compound 0.00949 µM, first compound 0.01 µM) of 11.1% and a viability, T/C [13] of 7.73%. The viability, T/C [14] was 7.78%, the viability, T/C [15] was 3.51% and the viability, T/C [16] was 1.48%. For the same molecule, the viability, T/C (second compound 0.03 µM, first compound 0.00316 µM) was 10.9%, the viability, T/C (second compound 0.03 µM, first compound 0.01 µM) was 10.1% and the viability, T/C [19] was 7.96%. It also gave a viability, T/C [20] of 5.76%, a viability, T/C [21] of 3.19% and a viability, T/C [22] of 1%. The viability, T/C (second compound 0.0949 µM, first compound 0.00316 µM) was 8.93%, the viability, T/C (second compound 0.0949 µM, first compound 0.01 µM) was 7.87% and the viability, T/C [25] was 7.13%. The viability, T/C [26] was 4.53%, the viability, T/C [27] was 2.24% and the viability, T/C [28] was 0.97%. For the same molecule, the viability, T/C (second compound 0.3 µM, first compound 0.00316 µM) was 7.33%, the viability, T/C (second compound 0.3 µM, first compound 0.01 µM) was 7.35% and the viability, T/C [31] was 5.27%. The viability, T/C [32] was 3.14%, the viability, T/C [33] was 1.96% and the viability, T/C [34] was 0.65%.
